Results as given in patent US20240376114A1, “NUCLEAR TRANSPORT MODULATORS AND USES THEREOF” (Karyopharm Therapeutics Inc., priority 2011, published 2024).
Where two headings read alike, the source gives them in different places.

What was measured:
[1] = Pharmacokinetic (PK) assay, plasma AUC; format: in vivo; settings: mouse, PO
Method: Pharmacokinetics (PK) play an increasing role in drug discovery and development. Pharmacokinetics is the quantitative study of the time course of drug absorption, distribution, metabolism and/or excretion. When a drug is administered, it distributes rapidly from its administration site into the systemic blood circulation. One measure of the extent of a therapeutic agent's distribution is the area under the plasma concentration-time curve (AUC), calculated to the last measured concentration (AUCt) and extrapolated to infinity (AUCinf). AUC is thus a useful metric to quantitate drug exposure. AUC. Blood was collected from mice (N=3) to contribute to the total of 10 time points (pre-dose, 5 min, 15 min, 30 min, 1 hour, 2 hours, 4 hours, 8 hours, 12 hours and 24 hours post dose). Mice were bled on a rotating basis, each mouse contributing 3 time points to the blood collection. At the designated time points, animals were anaesthetized under isoflurane, and approximately 110 μL of blood per time point was collected via retro-orbital puncture into pre-cooled K2EDTA (anti-coagulant) tubes. Blood samples were put on wet ice and centrifuged (2000 g, 5 min at 4° C.) to obtain plasma within 30 minutes of sample collection. All samples were stored frozen at approximately −80° C. until analysis. Prior to analysis, samples were mixed with internal standard (dexamethasone) in acetonitrile, vortexed, centrifuged, and supernatant was injected for analysis. Concentration of compounds in plasma was determined using LC-MS-MS instrumentation (API 4000, Triple Quadruple with electrospray ionization; Acuity Ultra Performance Liquid Chromatography column C18, with MeOH and formic acid as organic solvents). AUC values were calculated using WinNonlin Professional 6.2 software package, non-compartmental pharmacokinetic model NCA200.

[2] = CellTiter 96 AQueous One Solution (MTS) cell proliferation assay; format: cell-based; settings: human, MM.1S multiple myeloma cells; MM.1S cells, 72 h treatment; read-out: Cytotoxicity [EC50]
Excerpt: (§1) The CellTiter 96® AQueous One Solution cell proliferation assay (Promega) was used on MM.1S multiple myeloma cell line to study the cytotoxic and cytostatic properties of the compounds. The assay is based on the cleavage of the tetrazolium salt, MTS, in the presence of an electron-coupling reagent PES (phenazine ethosulfate). The MTS tetrazolium compound is bioreduced by cells into a colored formazan product that is soluble in tissue culture medium. This conversion is presumably accomplished by NADPH or NADH produced by dehydrogenase enzymes in metabolically active cells. Assays are performed by adding a small amount of the CellTiter 96® AQueous One solution reagent directly to culture wells, incubating for 1-4 hours and then recording the absorbance at 490 nm with a 96-well plate reader.
(§2) The cells were seeded at 5×10^3 to 1.5×10^4 cells (depending on cell type) in each well of a 96-well plate in 100 μL of fresh culture medium and adherent cells were allowed to attach overnight. The stock solutions of the compounds were diluted in cell culture medium to obtain eight concentrations of each drug, ranging from 1 nM to 30 μM and DMSO at less than 1% v/v was used as a negative control. The resulting drug solutions were transferred onto the cells. After 72 h of treatment, 20 μl of CellTiter 96® AQueous reagent was added into each well of the 96-well assay plates and the plate was incubated at 37° C. for 1-4 hours in a humidified, 5% CO2 atmosphere. Then the absorbance of each well was recorded at 490 nm using a 96-well plate reader. In most cases, the assay was performed in triplicate and the results were presented as half maximal inhibitory concentration (IC50). Optical density versus compound concentration was plotted and analyzed using non-linear regression equations (IDBS XLfit) and the IC50 for each compound was calculated.

[3] = Brain to plasma (B:P) ratio determination; format: in vivo; settings: brain and plasma; mouse, PO at 10 mg/kg, 2 hours post-dose
Excerpt: The brain to plasma (B:P) ratio is one method of quantifying the relative distribution of a therapeutic agent in brain tissue to that in circulation and, as such, provides one indication of the brain penetration of a given therapeutic agent. A high brain to plasma ratio is preferred when targeting diseases localized in the central nervous system (CNS), including the brain and the cerebrospinal fluid. However, a lower brain to plasma ratio is generally preferable for non-CNS therapeutic agents to minimize brain penetration and avoid potential side effects caused by unwanted accumulation of the therapeutic agents in the brain and CNS tissue.
Brain to Plasma (B:P) Ratio. […] Following collection, brain tissue was rinsed with cold saline, dried on filter paper, weighed and snap-frozen by placing on dry ice. All samples were stored frozen at approximately −80° C. until analysis. […] Plasma samples were treated with the identical method (except homogenization step) and the concentration of compound in each matrix was calculated based on generated standard curves.

[4] = test system: MM.1S multiple myeloma cell line; assay: CellTiter 96 AQueous One Solution (MTS) cell proliferation assay; format: cell-based
Excerpt: as §1, §2

[5] = 10 mg/kg, 10 mpk, read-out: AUCInf hr * ng/mL (mouse, PO, 10 mpk)
[6] = 5 mg/kg, 5 mpk, read-out: AUCInf hr * ng/mL (mouse, PO), tested at 5 mpk
[7] = MM.1S cells, 72 h treatment, read-out: Cytotoxicity [EC50]

Compound	EC50 at 72 h [2]	further results
O=C(/C=C\n1cnc(-c2cc(C(F)(F)F)cc(C(F)(F)F)c2)n1)N1CCC1 [Compound 23, (Z)-1-(azetidin-1-yl)-3-(3-(3,5-bis (trifluoromethyl)phenyl)-1H-1,2,4-triazol-1-yl) prop-2-en-1-one]	< 1000 nM	AUC(0-inf) [1, 5]: 521 ng·h/mL
CN(C)CC1CN(C(=O)/C=C\n2cnc(-c3cc(C(F)(F)F)cc(C(F)(F)F)c3)n2)C1 [Compound 25, (Z)-3-(3-(3,5-bis(trifluoromethyl)phenyl)-1H-1,2,4-triazol-1-yl)-1-(3-((dimethylamino)methyl)azetidin-1-yl)prop-2-en-1-one]	< 1000 nM	AUC(0-inf) [1, 5]: 2640 ng·h/mL
NCC1(F)CN(C(=O)/C=C\n2cnc(-c3cc(C(F)(F)F)cc(C(F)(F)F)c3)n2)C1 [Compound 60, (Z)-1-(3-(aminomethyl)-3-fluoroazetidin-1-yl)-3-(3-(3,5-bis(trifluoromethyl)phenyl)-1H-1,2,4-triazol-1-yl)prop-2-en-1-one]	< 1000 nM	Kp at 2 h [3]: 13.3; AUC(0-inf) [1, 6]: 1240 ng·h/mL
O=C(/C=C\n1cnc(-c2cc(C(F)(F)F)cc(C(F)(F)F)c2)n1)N1CC(F)(C(=O)O)C1 [Compound 62, (Z)-1-(3-(3-(3,5-bis(trifluoromethyl)phenyl)-1H-1,2,4-triazol-1-yl)acryloyl)-3-fluoroazetidine-3-carboxylic acid]	1000 to 10000 nM	
CN(C)CC1(F)CN(C(=O)/C=C\n2cnc(-c3cc(C(F)(F)F)cc(C(F)(F)F)c3)n2)C1 [Compound 63, (Z)-3-(3-(3,5-bis(trifluoromethyl)phenyl)-1H-1,2,4-triazol-1-yl)-1-(3-((dimethylamino)methyl)-3-fluoroazetidin-1-yl)prop-2-en-1-one]	< 1000 nM	
O=C1CC(c2cc(C(F)(F)F)cc(C(F)(F)F)c2)CN1/C=C\C(=O)N1CC(F)(F)C1 (stereo not drawn) [Compound 64, (Z)-4-(3,5-bis(trifluoromethyl)phenyl)-1-(3-(3,3-difluoroazetidin-1-yl)-3-oxoprop-1-enyl)pyrrolidin-2-one]	> 10000 nM	
O=C(/C=C\n1cnc(-c2cc(C(F)(F)F)cc(C(F)(F)F)c2)n1)N1CCC(O)CC1 [Compound 66, (Z)-3-(3-(3,5-bis(trifluoromethyl)phenyl)-1H-1,2,4-triazol-1-yl)-1-(4-hydroxypiperidin-1-yl)prop-2-en-1-one]	< 1000 nM	
O=C(/C=C\n1cnc(-c2cc(C(F)(F)F)cc(C(F)(F)F)c2)n1)NNc1cnccn1 [Compound 70]	< 1000 nM	AUC(0-inf) [1, 5]: 10100 ng·h/mL
O=C(/C=C\n1cnc(-c2cc(C(F)(F)F)cc(C(F)(F)F)c2)n1)NNc1ccccn1 [Compound 71]	< 1000 nM	Kp at 2 h [3]: 1.8; AUC(0-inf) [1, 5]: 10800 ng·h/mL
O=C(/C=C\n1cnc(-c2cc(F)cc(C(F)(F)F)c2)n1)N1CC(F)(F)C1 [Example 2, (Z)-1-(3,3-difluoroazetidin-1-yl)-3-(3-(3-fluoro-5-(trifluoromethyl)phenyl)-1H-1,2,4-triazol-1-yl)prop-2-en-1-one]	< 1000 nM	AUC(0-inf) [1, 5]: 396 ng·h/mL
O=C(/C=C\n1cnc(-c2cc(O)cc(C(F)(F)F)c2)n1)N1CC(F)(F)C1 [Example 3, (Z)-1-(3,3-difluoroazetidin-1-yl)-3-(3-(3-hydroxy-5-(trifluoromethyl)phenyl)-1H-1,2,4-triazol-1-yl)prop-2-en-1-one]	< 1000 nM	
O=C(/C=C\n1cnc(-c2cc(C(F)(F)F)cc(C(F)(F)F)c2)n1)N1CCCC(F)(F)C1 [Example 5, (Z)-3-(3-(3,5-bis(trifluoromethyl)phenyl)-1H-1,2,4-triazol-1-yl)-1-(3,3-difluoropiperidin-1-yl)prop-2-en-1-one]	1000 to 10000 nM	
O=C(/C=C\n1cnc(-c2cc(C(F)(F)F)cc(C(F)(F)F)c2)n1)N1CCC(F)(F)CC1 [Example 6, (Z)-3-(3-(3,5-bis(trifluoromethyl)phenyl)-1H-1,2,4-triazol-1-yl)-1-(4,4-difluoropiperidin-1-yl)prop-2-en-1-one]	1000 to 10000 nM	
O=C(/C=C\n1cnc(-c2cc(C(F)(F)F)cc(C(F)(F)F)c2)n1)N1CC(F)C1 [Example 7, (Z)-3-(3-(3,5-bis(trifluoromethyl)phenyl)-1H-1,2,4-triazol-1-yl)-1-(3-fluoroazetidin-1-yl)prop-2-en-1-one]	< 1000 nM	AUC(0-inf) [1, 5]: 2510 ng·h/mL
CC1(O)CN(C(=O)/C=C\n2cnc(-c3cc(C(F)(F)F)cc(C(F)(F)F)c3)n2)C1 [Example 8, (Z)-3-(3-(3,5-bis(trifluoromethyl)phenyl)-1H-1,2,4-triazol-1-yl)-1-(3-hydroxy-3-methylazetidin-1-yl)prop-2-en-1-one]	< 1000 nM	Kp at 2 h [3]: 3.16; AUC(0-inf) [1, 6]: 9050 ng·h/mL
O=C(/C=C\n1cnc(-c2cc(C(F)(F)F)nc(C(F)(F)F)c2)n1)N1CC(F)(F)C1 [Example 9, (Z)-3-(3-(2,6-bis(trifluoromethyl)pyridin-4-yl)-1H-1,2,4-triazol-1-yl)-1-(3,3-difluoroazetidin-1-yl)prop-2-en-1-one]	< 1000 nM	
CCN(C(=O)/C=C\n1cnc(-c2cc(C(F)(F)F)cc(C(F)(F)F)c2)n1)C(C)c1cccnc1 (stereo not drawn) [Example 10, (Z)-3-(3-(3,5-bis(trifluoromethyl)phenyl)-1H-1,2,4-triazol-1-yl)-N-ethyl-N-(1-(pyridin-3-yl)ethyl)acrylamide]	1000 to 10000 nM	
O=C(/C=C\n1cnc(-c2cc(C(F)(F)F)cc(C(F)(F)F)c2)n1)NCc1cnco1 [Example 11, (Z)-3-(3-(3,5-bis(trifluoromethyl)phenyl)-1H-1,2,4-triazol-1-yl)-N-(oxazol-5-ylmethyl)acrylamide]	< 1000 nM	AUC(0-inf) [1, 6]: 3080 ng·h/mL
(E)-3-(6-(3,5-bis(trifluoromethyl)phenyl)pyridin-2-yl)-1-(3,3-difluoroazetidin-1-yl)prop-2-en-1-one [Compound 15]		EC50 [4]: > 10000 nM
(Z)-3-(2-(3,5-bis(trifluoromethyl)phenyl)-1H-pyrrol-1-yl)-1-(3,3-difluoroazetidin-1-yl)prop-2-en-1-one [Compound 65]		EC50 [4, 7]: > 10000 nM
(Z)-3-(3-(3,5-bis(trifluoromethyl)phenyl)-1H-1,2,4-triazole-1-yl)-N-(1-(5-methylpyrimidine-2-yl)ethyl)acrylamide [Compound 21]		EC50 [4, 7]: 1000 to 10000 nM
